Measured values: patent US20120178765A1, “NOVEL GLUCOKINASE ACTIVATORS AND PROCESSES FOR THE PREPARATION THEREOF” (YUHAN CORPORATION, priority 2009, published 2012)
Where a name gives a salt, the structure may show the parent alone.

The compounds below were run against T1, Glucokinase (Homo sapiens, UniProt P35557) (assay: Glucokinase activation assay (NADPH absorbance at 340 nm)). Conditions: glucokinase (ProteinOne Inc.), 5 mM D(+)-glucose, 24° C., 90 minutes.
T1 construct: purchased ProteinOne Inc
T1 sequence (P35557 1-465): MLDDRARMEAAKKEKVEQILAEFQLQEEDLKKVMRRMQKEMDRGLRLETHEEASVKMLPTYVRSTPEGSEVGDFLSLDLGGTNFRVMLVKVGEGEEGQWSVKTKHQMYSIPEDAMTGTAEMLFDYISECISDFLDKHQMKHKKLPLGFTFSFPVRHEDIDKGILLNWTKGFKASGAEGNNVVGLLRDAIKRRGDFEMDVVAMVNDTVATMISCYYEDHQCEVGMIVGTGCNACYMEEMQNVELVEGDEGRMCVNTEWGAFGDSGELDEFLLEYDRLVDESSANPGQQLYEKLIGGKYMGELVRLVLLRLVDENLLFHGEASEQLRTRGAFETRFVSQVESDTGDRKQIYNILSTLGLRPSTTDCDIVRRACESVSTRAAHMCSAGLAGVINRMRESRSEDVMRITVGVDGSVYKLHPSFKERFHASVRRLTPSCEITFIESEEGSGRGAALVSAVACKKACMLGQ
Type: biochemical
Procedure, shortened: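 Glucokinase (100 ng/uL) coupled to G6PDH in 25 mM HEPES pH 7 with 5 mM D(+)-glucose, 1 mM ATP, 1 mM NADP; compounds added.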

EC50 [nM] | SMILES
275 | COC[C@H](C)Oc1cc(CCc2ccccc2NC(=O)Cc2cccs2)cc(C(=O)Nc2nccs2)c1 [Example 114]
229 | CCOC(=O)Nc1ccccc1CCc1cc(O[C@@H](C)COC)cc(C(=O)Nc2nccs2)c1 [Example 117, 3-{2-[2-(carbamic acid ethyl ester)phenyl]ethyl}-5-(2-methoxy-(1S)-methyl-ethoxy)-N-(thiazol-2-yl)-benzamide]
170 | CCOC(=O)CC(=O)Nc1cccc(CCc2cc(O[C@@H](C)COC)cc(C(=O)Nc3nccs3)c2)c1 [Example 121, 3-{2-[3-(malonamic acid ethyl ester)phenyl]ethyl}-5-(2-methoxy-(1S)-methyl-ethoxy)-N-(thiazol-2-yl)-benzamide]
205 | CCOC(=O)Nc1cccc(CCc2cc(O[C@@H](C)COC)cc(C(=O)Nc3nccs3)c2)c1 [Example 122, 3-{2-[3-(carbamic acid ethyl ester)phenyl]ethyl}-5-(2-methoxy-(1S)-methyl-ethoxy)-N-(thiazol-2-yl)-benzamide]
200 | COC[C@H](C)Oc1cc(CCc2cccc(NC(=O)c3ccncc3)c2)cc(C(=O)Nc2nccs2)c1 [Example 128, 3-[2-(3-isonicotinamidephenyl)ethyl]-5-(2-methoxy-(1S)-methyl-ethoxy)-N-(thiazol-2-yl)-benzamide]
204 | CCOC(=O)CC(=O)Nc1ccc(CCc2cc(O[C@@H](C)COC)cc(C(=O)Nc3nccs3)c2)cc1 [Example 135, 3-{2-[4-(malonamic acid ethyl ester)phenyl]ethyl}-5-(2-methoxy-(1S)-methyl-ethoxy)-N-(thiazol-2-yl)-benzamide]
270 | CCOC(=O)Nc1ccc(CCc2cc(O[C@@H](C)COC)cc(C(=O)Nc3nccs3)c2)cc1 [Example 136, 3-{2-[4-(carbamic acid ethyl ester)phenyl]ethyl}-5-(2-methoxy-(1S)-methyl-ethoxy)-N-(thiazol-2-yl)-benzamide]
357 | COC[C@H](C)Oc1cc(CCc2ccc(NC(=O)c3ccncc3)cc2)cc(C(=O)Nc2nccs2)c1 [Example 142, 3-[2-(4-isonicotinamidephenyl)ethyl]-5-(2-methoxy-(1S)-methyl-ethoxy)-N-(thiazol-2-yl)-benzamide]
222 | COC[C@H](C)Oc1cc(CCc2cccc(NC(=O)CC(=O)O)c2)cc(C(=O)Nc2nccs2)c1 [Example 147, 3-[2-(3-malonamic acid phenyl)ethyl]-5-(2-methoxy-(1S)-methyl-ethoxy)-N-(thiazol-2-yl)-benzamide]
417 | CCC(COC)Oc1cc(/C=C/c2ccc(F)cc2)cc(C(=O)Nc2nccs2)c1 (stereo not drawn) [Example 148, 3-[trans-2-(4-fluorophenyl)vinyl]-5-(1-methoxymethyl-propoxy)-N-(thiazol-2-yl)-benzamide]

SMILES | EC50 [nM]
COC[C@H](C)Oc1cc(CCc2ccccc2N)cc(C(=O)Nc2nccs2)c1 [Example 110, 3-[2-(2-aminophenyl)ethyl]-5-(2-methoxy-(1S)-methyl-ethoxy)-N-(thiazol-2-yl)-benzamide hydrochloride] | 68.2
COC[C@H](C)Oc1cc(CCc2cccc(N)c2)cc(C(=O)Nc2nccs2)c1 [Example 111, 3-[2-(3-aminophenyl)ethyl]-5-(2-methoxy-(1S)-methyl-ethoxy)-N-(thiazol-2-yl)-benzamide hydrochloride] | 54.7
COC[C@H](C)Oc1cc(CCc2ccc(N)cc2)cc(C(=O)Nc2nccs2)c1 [Example 112, 3-[2-(4-aminophenyl)ethyl]-5-(2-methoxy-(1S)-methyl-ethoxy)-N-(thiazol-2-yl)-benzamide hydrochloride] | 126
